Results reported in US11331282B2, “Ophthalmic composition containing clathrated antioxidant substance, and use thereof” (TK Health Research, Co. Ltd., priority 2017, dated 2022).

Legend:
dry eye mouse model = assay: Change in tear volume by Schirmer's test in BAC dry eye mouse model; type: in vivo; conditions: oral intake 200 mg/kg, two weeks, Day 28, Example 2
Experimental: A dry eye mouse model was created by eye drop treatment with benzalkonium chloride (also denoted as BAC).
After two weeks of continuous BAC treatment of mice, additional BAC treatment and eye drop treatment with water soluble astaxanthin or water soluble control (vehicle, γ-cyclodextrin only) were continued for two weeks. A group of mice applied with only PBS eye drops was used as a […].
The change in the tear volume in the mouse model was measured by Schirmer's test. The tear volume was determined as a relative tear volume (normal tear volume (filter moving distance): 7.17±1.35 mm) when normal tear volume was 100. Statistical processing: ANOVA, Student's t-test.
A dry eye mouse model was created in the same manner described in Example 1. […] The change in tear volume was measured by Schirmer's test in the same manner as Example 1. The goblet cells were also counted in the same manner as Example 1.
A dry eye mouse model was created in the same manner as Example 1. Subsequently, water-soluble astaxanthin eye drops and DMSO dissolved astaxanthin eye drops were applied for two weeks, and the change in the tear volume was measured by Schirmer's test in the same manner as Example 1. The goblet cells were also counted in the same manner as Example 1. […]
A change in the tear volume in the mouse model is measured by Schirmer's test. […]

[1] = system: ocular surface goblet cells of a dry eye mouse model; assay: Goblet cell count by PAS stain in BAC dry eye mouse model; type: in vivo; conditions: oral administration for two weeks
Experimental: To find the effect of astaxanthin eye drops on ocular surface goblet cells of a dry eye mouse model, histological analysis was performed after two weeks of astaxanthin eye drops, and the number of goblet cells was counted by counting the cells stained red by PAS stain.
A dry eye mouse model was created in the same manner described in Example 1. Subsequently, astaxanthin eye drops were applied and astaxanthin was orally administered (oral intake astaxanthin, also denoted as oAsx) for two weeks. The change in tear volume was measured by Schirmer's test in the same manner as Example 1. The goblet cells were also counted in the same manner as Example 1.
A dry eye mouse model was created in the same manner as Example 1. Subsequently, water-soluble astaxanthin eye drops and DMSO dissolved astaxanthin eye drops were applied for two weeks, and the change in the tear volume was measured by Schirmer's test in the same manner as Example 1. The goblet cells were also counted in the same manner as Example 1.
A change in the tear volume in the mouse model is measured by Schirmer's test. The tear volume is determined as a relative tear volume (normal tear volume (filter moving distance): 7.17±1.35 mm) when normal tear volume is 100. Statistical processing: ANOVA, Student's t-test. […]

[2] = Solubilization testing by filtration (colour of filtrate, 0.45 μm filter); type: physicochemical
Experimental: The astaxanthin concentration in the filtrate can be measured by measuring the absorbance of the wavelength 478 nm using an absorption (spectrophoto)meter. […] Astaxanthin was dissolved in DMSO, and the final concentration was adjusted to 6.25, 12.5, 25, 50, and 100 μg/ml with Milli-Q water. After 0 point correction with a solvent, 480 nm absorbance of each astaxanthin solution was measured, and calibration curves were drawn. The concentration of water soluble astaxanthin solution was found from the 480 nm absorbance measurement value of the water soluble astaxanthin solution based thereon. […] Solubilization of lycopene and canthaxanthin was confirmed by filtration with a 0.45 μm filter.

Molecule | tear volume (relative to normal tear volume) (dry eye mouse model) | goblet cell count [1] | solubilization in aqueous solvent (remains in filtrate after filtration) [2]
CC1=C(/C=C/C(C)=C/C=C/C(C)=C/C=C/C=C(C)/C=C/C=C(C)/C=C/C2=C(C)C(=O)[C@@H](O)CC2(C)C)C(C)(C)C[C@H](O)C1=O [astaxanthin] | increased only slightly | recovery in the goblet cell count was not observed | –
canthaxanthin | – | – | Successful water-solubilization
